US7972800B2, “Screening method for binding property or signal transduction alterations” (Takeda Pharmaceutical Company Limited, priority 2003, dated 2011)

Experiments:
[1] = target: TGR7 (Homo sapiens, UniProt Q8TDS7); details: Cytosensor, TGR7-expressed cells (FIG. 8)
Description: (§1) Activation of the intracellular signal transduction system by ligands using a Cytosensor was determined in terms of the pH changes by metabolism of cells as an indicator.
(§2) The procedures were as follows. On the previous day, the human GPR39-expressing CHO cell line was cultured in a culture flask to reach a confluent state. After washing with PBS (Invitrogen Corp.), the cells were scraped off using trypsin (Invitrogen Corp.) and centrifuged for recovery. The cells were then suspended in medium and the suspension was adjusted to 3×10^5 cells/ml. The capsule of Cytosensor capsule kit (Molecular Device) was placed on a 12-well plate (Costar) and 1 ml of the cell suspension was charged therein. After covering with the lid, the cells were incubated at 37° C. in an incubator until next day. On the day when the assay was conducted, Cytosensor was activated as instructed by the protocol. Then, RPMI1640 medium (pH 7.4) (Invitrogen Corp.) for Cytosensor was prepared and equilibrated. The spacer was then placed in the capsule where the cells prepared on the previous day were seeded, and the capsule was set on Cytosensor. After equilibration with the medium, a sample was added to the cells by switching the flow path and pH changes were determined.

[2] = target: T1, human GPR39 (Homo sapiens, UniProt O43194); details: Cytosensor, CHO/hGPR39 (FIG. 8)
T1 sequence (O43194 1-453): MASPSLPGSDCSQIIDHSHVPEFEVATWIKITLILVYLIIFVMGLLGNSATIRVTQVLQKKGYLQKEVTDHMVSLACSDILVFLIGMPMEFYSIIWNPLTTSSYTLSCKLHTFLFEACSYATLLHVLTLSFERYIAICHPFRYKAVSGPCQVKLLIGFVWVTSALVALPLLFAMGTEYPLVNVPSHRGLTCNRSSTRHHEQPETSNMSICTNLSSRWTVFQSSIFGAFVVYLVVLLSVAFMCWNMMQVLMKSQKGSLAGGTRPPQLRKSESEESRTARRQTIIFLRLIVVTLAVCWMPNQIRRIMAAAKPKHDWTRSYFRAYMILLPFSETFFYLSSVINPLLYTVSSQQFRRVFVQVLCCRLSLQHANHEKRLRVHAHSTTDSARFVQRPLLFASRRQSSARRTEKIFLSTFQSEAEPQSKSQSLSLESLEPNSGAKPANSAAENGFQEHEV
Description: as §1, §2

[3] = test system: mock cells where GPR39 was not expressed; details: Cytosensor, mock cells where GPR39 was not expressed (FIG. 8)
Description: as §1, §2

Chain of TGR7 (Q8TDS7 whole entry): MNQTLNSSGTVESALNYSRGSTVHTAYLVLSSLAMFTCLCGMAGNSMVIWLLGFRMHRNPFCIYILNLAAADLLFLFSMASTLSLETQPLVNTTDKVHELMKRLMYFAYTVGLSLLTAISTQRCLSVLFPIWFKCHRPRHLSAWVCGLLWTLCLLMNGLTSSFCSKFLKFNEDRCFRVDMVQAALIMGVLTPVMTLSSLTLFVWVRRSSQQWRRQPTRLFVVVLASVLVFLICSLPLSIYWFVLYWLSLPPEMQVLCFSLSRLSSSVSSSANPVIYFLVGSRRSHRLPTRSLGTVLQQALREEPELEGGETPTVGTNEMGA

Compound: [Cl][Ni][Cl] [nickel chloride]
- cell response (pH change) in other receptor TGR7 cells [1]: any response was not detected
- cell response (pH change, acidification rate) in GPR39-expressed cells [2]: a cell response specific to nickel was detected
- cell response (pH change) in mock cells [3]: any response was not detected
